In PMC8097893, “Investigating the effects of two novel 4-MMPB analogs as potent lipoxygenase inhibitors for prostate cancer treatment” (Journal of Biological Research, 2021):
Like-named read-outs stand apart in the source and are kept apart here.

Columns and labels:
15-LOX-1 = settings: read-out: IC50 against 15-LOX-1; cited from earlier work
PC-3 cells [1] = test: MTT cytotoxicity assay on PC-3 cells; format: cell-based, human; settings: PC-3, MTT
Method: (§1) Two mg of each compound was dissolved in 100 μl hydrochloric acid (HCl 0.3 N) to make a primary stock solution. Different concentrations (1.56–50 μg ml^−1) were then prepared by serial dilution from the primary stock solution and further diluted in the culture medium.
(§2) PC-3 cells were obtained from Pasteur Institute (Tehran, Iran) and routinely cultured in RPMI 1640 supplemented with 10% FBS. In order to investigate the toxicity of the compounds on normal cells, in vitro experiments were also performed on HDF cells. These cells were kindly provided by Academic Center for Education, Culture and Research (ACECR, Mashhad, Iran) and grown in DMEM supplemented with 10% FBS. Both cell lines were kept at 37 °C containing 5% CO2 in a humidified incubator.
(§3) The MTT reduction assay is a standard quantitative method to evaluate cytotoxicity. This assay measures cellular dehydrogenases, and is considered as an easy, safe and highly reproducible method. Viable cells reduce yellow tetrazolium salt to purple formazan crystals and thus the color change serves as a marker reflecting cell viability.
(§4) PC-3 and HDF cells were seeded in 96-well plates (NEST, China) at a density of 6000 and 8000 cells per well, respectively and incubated at 37 °C with 5% CO2. […] After 24, 48 and 72 h of treatments, 20 μl MTT solution (5 mg ml^−1 in PBS; phosphate buffered saline) was added to each well, and cells were incubated in the dark for 3–4 h. The media were then removed and purple crystals were dissolved in 160 μl DMSO. The absorbance in each well was measured at 540 nm as reference wavelength in an enzyme-linked immunosorbent assay (ELISA) reader (Awareness Technology, USA) and relative optical density (OD) values were recorded. The percentage of viable cells was calculated using the following equation [49]: Cell viability%=100×ODmeanof treated cells-ODmeanblank/ODmeanof negative control cellsHCl0.3 N-ODmeanblank.

HDF cells = test: MTT cytotoxicity assay on HDF normal cells; format: cell-based, human
Method: as §1, §2, §3, §4

PC-3 cells [2] = test: Flow cytometric analysis of cell death (Annexin V-FITC/PI) in PC-3 cells; format: cell-based, human; settings: for percentage of early and late apoptotic/ferroptotic cells (Q3+Q2): PC-3, treated with IC50 value of the compound, 24 h, control 0.133%; for change of Q2 (Annexin V positive/PI positive) population after co-treatment with deferoxamine: PC-3, compared with compound only
Method: To determine the mechanism of cell death induced by 4-MMPB analogs, flow cytometry was employed using the Annexin V-FITC kit with PI (BioLegend, San Diego, USA) according to the manufacturer’s instructions. We performed co-treatment experiments with the compounds and a ferroptosis inhibitor (IC50 values of 4-PMPB + , 4-EMPB + , and 4-MMPB + deferoxamine (80 µM)) on PC-3 cells, to distinguish between ferroptosis and apoptosis mechanisms. […] Then the cells were collected by trypsinization (0.25% trypsin-1 mM EDTA), washed twice with PBS, followed by centrifugation, and resuspended in a binding buffer. Samples were stained with Annexin V-FITC/ PI followed by 15 min incubation at room temperature. Finally, cells were subjected to flow cytometry (BD Accuri C6, San Jose, USA) and the data were analyzed by FlowJo 7.6.1 software (Ashland, USA). Moreover, PC-3 cells treated with 0.3 N HCl were used as a control to eliminate the effects of solvent.

[3] = In vivo side effects evaluation (body weight, serum biochemistry, H&E histology); set-up: species or system C57BL/6 mice; settings: for histological analysis of major organs (liver, kidney, spleen): H&E, day 15 after treatments; for serum AST and ALT levels: 50 mg kg^-1, compared with immunosuppressed control group
PC-3 tumors = test: Anti-tumor effect in PC-3 xenograft tumor model in immunocompromised C57BL/6 mice
soybean LOX-1 [4] = molecular target: T1, soybean LOX-1 (Glycine max, UniProt P08170); test: Soybean LOX-1 enzyme inhibitory assessment (DMAB-MBTH colour assay, linoleic acid substrate); format: biochemical; settings: from sigmoidal dose-response curves, n = 3; read-out: IC50, soybean LOX-1 inhibition
T1 construct: purchased Sigma-Aldrich
T1 sequence (P08170 1-839): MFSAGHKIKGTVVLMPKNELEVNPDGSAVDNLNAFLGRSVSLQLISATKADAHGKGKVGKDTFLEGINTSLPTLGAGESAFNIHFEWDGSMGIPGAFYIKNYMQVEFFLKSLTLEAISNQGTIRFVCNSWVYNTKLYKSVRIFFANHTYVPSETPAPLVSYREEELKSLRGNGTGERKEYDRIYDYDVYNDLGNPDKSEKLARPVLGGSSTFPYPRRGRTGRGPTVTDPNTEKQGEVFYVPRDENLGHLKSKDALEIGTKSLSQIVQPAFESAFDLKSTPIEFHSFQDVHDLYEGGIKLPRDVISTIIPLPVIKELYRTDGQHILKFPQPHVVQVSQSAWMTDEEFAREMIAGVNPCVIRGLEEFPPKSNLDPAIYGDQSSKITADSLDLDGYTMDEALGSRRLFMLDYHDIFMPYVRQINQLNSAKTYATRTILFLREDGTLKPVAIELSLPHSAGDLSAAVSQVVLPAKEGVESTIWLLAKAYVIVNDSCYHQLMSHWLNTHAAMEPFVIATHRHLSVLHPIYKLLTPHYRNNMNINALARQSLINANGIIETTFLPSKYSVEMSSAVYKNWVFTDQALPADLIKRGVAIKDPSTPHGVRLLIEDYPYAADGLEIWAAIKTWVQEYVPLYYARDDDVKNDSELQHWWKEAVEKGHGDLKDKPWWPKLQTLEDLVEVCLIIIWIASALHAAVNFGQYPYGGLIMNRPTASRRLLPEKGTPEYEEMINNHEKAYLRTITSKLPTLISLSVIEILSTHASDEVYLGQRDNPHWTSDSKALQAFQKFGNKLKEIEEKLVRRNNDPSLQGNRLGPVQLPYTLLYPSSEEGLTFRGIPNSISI
Method: Linoleic acid and two assay solutions (A and B) were prepared in advance. Solution A was 50 mM 3-(dimethylamino)benzoic acid (DMAB) in l00 mM phosphate buffer (pH 7.0). Solution B was a mixture of l0 mM 3-methyl-2-benzothiazolinonehydrazone hydrochloride (MBTH; 3 ml), and hemoglobin (5 mg ml^−1, 3 ml) in 50 mM phosphate buffer at pH 5.0 (25 ml). A linoleic acid solution was prepared by mixing 5.6 mg linoleic acid with 0.5 ml methanol and then diluted with 100 mM KOH to a final volume of 5 ml (4 mM). In the assay, a solution of inhibitors in dimethyl sulfoxide (DMSO) (12.5 μl), soybean LOX-1 (4000 units ml^−1 in 50 mM phosphate buffer pH 7.0; 25 μl), and phosphate buffer, pH 7.0 (50 mM; 435 μl) were mixed in 48-well plates, and pre incubation was carried out for 10 min at 30 °C. A control test was performed with the same volume of DMSO. After the pre incubation, linoleic acid solution (25 μl) was added to start the peroxidation reaction at 30 °C, and 10 min later, solution A (135 μl) and then solution B (65 μl) were added to start the color formation. After 3 min, 100 μl of a 2% sodium dodecyl sulphate (SDS) solution was added to terminate the reaction. The absorbance at 598 nm was compared with the control. These experiments were performed in triplicate and the data were analyzed using GraphPad Prism 6.0 (San Diego, USA).
Lipoxygenase inhibitory activity of 4-MMPB and its analogs was assessed on soybean LOX-1 and the inhibitory potencies (IC50 values) of the mentioned compounds were calculated from their sigmoidal dose–response curves (Fig. 2).

soybean LOX-1 [5] = molecular target: T1, soybean LOX-1; set-up: method as in doi:10.1007/s00044-013-0506-7; settings: read-out: IC50 against soybean LOX-1; cited from earlier work
15-lipoxygenase = molecular target: 15-lipoxygenase; set-up: method as in PMID 17210254; settings: read-out: IC50, 15-lipoxygenase inhibition; cited from earlier work
[6] = 24 h, read-out: IC50 (µM) ± SD (PC-3) 24 h
[7] = 48 h, read-out: IC50 (µM) ± SD (PC-3) 48 h
[8] = 72 h, read-out: IC50 (µM) ± SD (PC-3) 72 h
[9] = 24 h, read-out: IC50 (µM) ± SD (HDF) 24 h
[10] = 48 h, read-out: IC50 (µM) ± SD (HDF) 48 h
[11] = 72 h, read-out: IC50 (µM) ± SD (HDF) 72 h
[12] = 10 and 50 mg kg^-1, 15 days follow up
[13] = high dose 50 mg kg^-1, 15 days, vs PBS and 0.3 N HCl controls

Compound	IC50 (PC-3 cells [1]; [6]) [µM]	IC50 (PC-3 cells [1]; [7]) [µM]	IC50 (PC-3 cells [1]; [8]) [µM]	IC50 (HDF cells; [9]) [µM]	IC50 (HDF cells; [10]) [µM]	IC50 (HDF cells; [11]) [µM]	percentage of early and late apoptotic/ferroptotic cells (Q3+Q2) (PC-3 cells [2]) [%]	histological analysis of major organs (liver, kidney, spleen) [3]	IC50 (soybean LOX-1 [4]) [µM]	cytotoxicity on normal (HDF) cells, in words (HDF cells)	change of Q2 (Annexin V positive/PI positive) population after co-treatment with deferoxamine (PC-3 cells [2])	serum AST and ALT levels [3]	body weight [3, 12]	tumor growth (PC-3 tumors; [13])	also measured
CC(C)=CCCC(C)=CCCC(C)=CCOc1cccc2oc(=O)ccc12 [5-farnesyloxycoumarin]	–	–	–	–	–	–	–	–	–	–	–	–	–	–	IC50 (15-LOX-1): 8.32 µM
N.N.[Cl][Pt][Cl] [Cisplatin, cisplatin, reference compound]	62.3 ± 1.74	51.5 ± 1.43	41.6 ± 1.11	153 ± 2.89	119 ± 2.56	71.1 ± 3.34	67.8	mild and local accumulation of inflammatory cells	–	–	–	–	–	–	serum liver enzymes ([3]; cisplatin 2 mg kg^-1, compared to control group, p < 0.0001): significantly increased; body weight ([3]; cisplatin 2 mg kg^-1, day 15, p < 0.01 vs other experimental groups): lowest body weights; tumor growth (PC-3 tumors; cisplatin 2 mg kg^-1, 15 days, vs controls and lower-dose groups): significant decrease
CCCc1nc(N2CCN(C)CC2)nc2c1Sc1ccccc1N2 [4-PMPB, 4-propyl-2-(4-methylpiperazinyl)pyrimido[4,5-b]benzothiazine]	122 ± 2.62	88.5 ± 2.31	57.6 ± 2.12	1641.1 ± 0.075	1443.7 ± 0.055	1028.9 ± 0.139	52.38	no obvious tissue damages	8.6	no obvious cytotoxicity	markedly decreased	significantly elevated	no significant changes	effectively inhibited	IC50 (soybean LOX-1 [5]): 9 µM
CCc1nc(N2CCN(C)CC2)nc2c1Nc1ccccc1S2 [4-EMPB, 4-Ethyl-2-(4-methylpiperazinyl)pyrimido[4,5-b]benzothiazine]	–	–	–	–	–	–	60.9	no obvious tissue damages	14.3	weak cytotoxicity	markedly decreased	significantly elevated	no significant changes	effectively inhibited	IC50 (PC-3 cells [1]; Homo sapiens, 24 h, read-out: IC50 (µM) ± SD (PC-3) 24 h): 107 ± 6.17 µM; IC50 (PC-3 cells [1]; Homo sapiens, 48 h, read-out: IC50 (µM) ± SD (PC-3) 48 h): 75 ± 3.39 µM; IC50 (PC-3 cells [1]; Homo sapiens, 72 h, read-out: IC50 (µM) ± SD (PC-3) 72 h): 49 ± 6.76 µM; IC50 (HDF cells; Homo sapiens, 24 h, read-out: IC50 (µM) ± SD (HDF) 24 h): 545.5 ± 1.99 µM; IC50 (HDF cells; Homo sapiens, 48 h, read-out: IC50 (µM) ± SD (HDF) 48 h): 361.7 ± 2.29 µM; IC50 (HDF cells; Homo sapiens, 72 h, read-out: IC50 (µM) ± SD (HDF) 72 h): 258.9 ± 1.86 µM
Cc1nc(N2CCN(C)CC2)nc2c1Sc1ccccc1N2 [4-MMPB, 4-Methyl-2-(4-methylpiperazinyl)pyrimido[4,5-b]benzothiazine]	101 ± 2.41	55.6 ± 1.98	40.8 ± 1.79	331 ± 3.33	284 ± 2.98	186 ± 2.81	41.5	no obvious tissue damages	17.1	weak cytotoxicity	markedly decreased	significantly elevated	no significant changes	effectively inhibited	IC50 (15-lipoxygenase): 18 µM
